Structures can show the parent of a compound that is named as a salt.
Legend:
[1] = tested on: Nrf2 nuclear translocation in SH-SY5Y cells; test: Nrf2 nuclear translocation (Western blot of nuclear extracts); format: cell-based, human; conditions: 5 μM, 3 h
From the text: In physiological conditions, the repressor Keap1 traps Nrf2 at the cytosolic level, preventing the activation of Nrf2 pathway. The disruption of Keap1–Nrf2 interaction allows for Nrf2 nuclear translocation, thus resulting in the transcriptional activation of its target cytoprotective genes. […] We and others have previously developed several compounds bearing caffeic and ferulic fragments able to activate Nrf2 in terms of the up-regulation of Nrf2 expression, translocation into the nucleus and induction of the Nrf2-dependent defensive genes, with (pro)electrophilic features emerging as key players. Herein, to analyse the effect of the new molecules on the Nrf2 downstream cascade, the ability of compounds 1–5 to increase Nrf2 nuclear translocation was preliminary evaluated as a pivotal step in Nrf2 signalling activation (Figure 6). Based on MAO-B inhibitory potency and cell toxicity assay, compounds were studied in SH-SY5Y human neuroblastoma cells at the concentration of 5 μM. Given the high structural analogy with our derivatives, we selected the well-known Nrf2 inducer CAPE [37, 38] as the reference compound, and verified its ability to induce Nrf2 nuclear translocation at different concentrations, ranging from 5 µM to 50 µM in our experimental model (Figure S6). Nrf2 nuclear content was assessed via Western blot analysis. […] Consistently, data from literature highlight discrepancies about pioglitazone-mediated Nrf2 activation, indicating its ability to activate Nrf2 in longer timeframes and different in vitro and in vivo experimental conditions. […] The preliminary docking performed on human Keap-1 confirms the excellent positioning of compound 2 within the BTB domain pocket, where cysteine 151 is located (see Figure S5). […] Particularly, all these new molecules hold the characteristic (pro)electrophilic fragments, which however, in this case, resulted to be insufficient to activate Nrf2, as reported for other ferulic and caffeic derivatives. In this regard, optimal target interaction might play a major role, but further biological investigations are needed to fully clarify the mechanism of Nrf2 activation and the effect on the downstream expression of cytoprotective genes.
SH-SY5Y cells (5 × 106) were seeded in […] dishes and treated for 3 h with 5 μM compounds; afterward, the medium was removed, and cells were washed twice with ice-cold PBS. Cells were subsequently homogenized 15 times using a glass−glass Dounce homogenizer in 0.32 M sucrose, buffered with 20 mM Tris- HCl (pH 7.4), containing 2 mM EDTA, 0.5 mM EGTA, 50 mM β-mercaptoethanol and 20 μg/mL leupeptin, apotrinin and pepstatin. The homogenate was centrifuged at 300× g for 5 min to obtain the nuclear fraction. An aliquot of the nuclear fraction was used for protein assay via the Bradford method, whereas the remaining was boiled for 5 min after dilution with sample buffer and subjected to polyacrylamide gel electrophoresis and immunoblotting, as described.

recombinant hMAO-B = target: T1, recombinant hMAO-B (Homo sapiens, UniProt P27338); test: hMAO-B activity assay (kynuramine, fluorimetric); format: biochemical; conditions: for SI (selectivity index): calculated as hMAO-A Ki/hMAO-B Ki; for Ki: kynuramine [S] = 10 µM, pH 7.4, 37 °C, mean ± S.D., read-out: hMAO-B Ki
T1 construct: purchased Fluka-Sigma-Aldrich s.r.l; (Italy); host or cells: Baculovirus infected BT1 cells
T1 sequence (P27338 1-520): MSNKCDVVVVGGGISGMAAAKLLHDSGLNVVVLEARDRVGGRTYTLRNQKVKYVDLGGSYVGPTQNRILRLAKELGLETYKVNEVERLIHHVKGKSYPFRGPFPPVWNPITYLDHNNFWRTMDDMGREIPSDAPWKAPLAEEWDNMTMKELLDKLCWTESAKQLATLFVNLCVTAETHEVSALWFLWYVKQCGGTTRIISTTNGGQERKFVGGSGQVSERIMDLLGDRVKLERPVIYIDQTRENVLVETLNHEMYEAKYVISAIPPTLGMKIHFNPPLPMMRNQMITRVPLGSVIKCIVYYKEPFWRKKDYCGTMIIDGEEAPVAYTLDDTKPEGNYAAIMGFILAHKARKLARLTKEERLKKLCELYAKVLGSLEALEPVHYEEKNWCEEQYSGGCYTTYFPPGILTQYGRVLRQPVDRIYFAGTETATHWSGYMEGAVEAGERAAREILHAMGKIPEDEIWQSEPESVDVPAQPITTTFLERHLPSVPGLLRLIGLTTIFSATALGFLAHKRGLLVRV
Description: (§1) Human recombinant hMAO-A and hMAO-B expressed in Baculovirus infected BT1 cells (5 mg/mL) and horseradish peroxidases were purchased from Fluka-Sigma-Aldrich s.r.l. (Italy). A Cary Eclipse fluorimeter (Varian Inc., Palo Alto, CA, USA) was used for fluorescence measurements. […] At first, the peroxidase-coupled continuous assay that detect the H2O2 generation rate was considered. It uses the Amplex Red reagent as the fluorogenic substrate for horseradish peroxidase.
(§2) By applying this method, hMAO activity assays were performed in K/Pi 0.1 M, EDTA 1 mM (total volume: 200 μL; pH 7.4, T = 37 °C), in the presence and in absence of various concentrations of the different compounds (0.2–20 μM and 2–50 μM in the case of hMAO–B and hMAO-A, respectively).
(§3) MAOs stock solutions were diluted with assay buffer in the presence or absence of the tested compound to obtain a final concentration of 0.005 mg/mL for MAO-A and 0.010 mg/mL for MAO-B; then, kynuramine (10–300 μM final concentration) was added to the assay solution. After 45–60 min of incubation at 37 °C, the reaction was stopped by the addition of 2 M NaOH (80 μL) and 480 μL of distilled water. Kynuramine deaminated by MAO spontaneously cyclizes to provide 4-hydroxyquinoline, the amount of which was determined by the fluorescence intensity of the peak of its emission spectra (λexc = 330 nm and λem 330–530 nm). Then, the rate of reaction was calculated using a specific calibration curve (in the presence of the same amount of the tested compound) built with the standard 4-hydroxyquinoline.
(§4) Under these experimental conditions, the Michaelis–Menten equation for rate of reaction, can be simplified as follows: V ≈ (Vmax/KM) [E]0[S]0 [49]. In the presence of an inhibitor, one or both the kinetic parameters, KM and Vmax, might be affected by its presence, depending on the inhibition mechanism. In particular, in the presence of a reversible inhibitor, both the kinetic parameters could be affected, and the apparent kinetic parameter would then become: KM I = KM,0 (1 + [I]/Ki)/(1 + [I]/(αKi)), and VmaxI = Vmax0/(1 + [I]/(αKi)), where α is the factor indicating how much the dissociation constant of the enzyme-substrate-I complex is different from that of the enzyme–I complex (also named Ki). Consequently, the ratio of the initial rate of reaction in the absence (Vo) and in the presence (VI) of the tested compound (Vo/VI) can be simplified to the ratio of (Vmax/KM)o/(Vmax/KM)I ≈ (1 + [I]/Ki).
(§5) To study the mechanism of inhibition, the steady-state kinetic parameters (Vmax and Km) of MAO-A and MAO-B were determined by performing experiments at different substrate concentrations and in the absence and presence of different concentrations of the tested compound. Vmax and Km were calculated by fitting the Michaelis–Menten equation to the experimental data (initial rate of reactions vs. substrate concentrations), with Sigma Plot software, version 9.0 (Jandel Scientific, San Rafael, CA, USA).

recombinant hMAO-A = target: T2, recombinant hMAO-A (Homo sapiens, UniProt P21397); test: hMAO-A activity assay (kynuramine, fluorimetric); format: biochemical; conditions: kynuramine [S] = 10 µM, pH 7.4, 37 °C; mean ± S.D.; read-out: hMAO-A Ki
T2 construct: purchased Fluka-Sigma-Aldrich s.r.l; (Italy); host or cells: Baculovirus infected BT1 cells
T2 sequence (P21397 1-527): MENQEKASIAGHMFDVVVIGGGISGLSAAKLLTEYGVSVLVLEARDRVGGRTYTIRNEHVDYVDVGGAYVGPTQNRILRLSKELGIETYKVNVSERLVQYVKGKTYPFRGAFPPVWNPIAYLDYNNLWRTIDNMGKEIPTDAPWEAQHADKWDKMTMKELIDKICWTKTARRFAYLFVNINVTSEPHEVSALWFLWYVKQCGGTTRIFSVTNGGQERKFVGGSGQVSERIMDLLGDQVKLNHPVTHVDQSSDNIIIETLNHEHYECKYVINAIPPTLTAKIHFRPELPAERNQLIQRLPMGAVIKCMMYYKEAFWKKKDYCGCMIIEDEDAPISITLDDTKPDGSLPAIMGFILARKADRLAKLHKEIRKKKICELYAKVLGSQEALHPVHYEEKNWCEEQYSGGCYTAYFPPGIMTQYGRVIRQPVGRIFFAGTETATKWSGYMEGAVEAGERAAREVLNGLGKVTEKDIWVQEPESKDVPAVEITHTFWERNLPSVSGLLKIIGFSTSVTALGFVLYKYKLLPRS
Description: as §1, §2, §3, §4, §5

[2] = tested on: ROS production in HepG2 cells; test: Intracellular ROS generation rate (DCF-DA); format: cell-based, human; conditions: 5 µM, antimycin A 10 µM, 30 min
Description: Thus, on the basis of the hMAO-B inhibitory potency and on the Nrf2 nuclear translocation results, the most promising compounds 2 and 3 were chosen for the evaluation of their antioxidant activity in the human hepatic HepG2 cells, a valuable cellular system to assess antioxidant properties of the compounds [43, 44]. CAPE and pioglitazone were also tested as reference compounds. HepG2 cells were pre-loaded with dichlorofluorescein diacetate (DCF-DA), a fluorescent probe to detect ROS generation. […] Immediately, antimycin A (10 µM), an inhibitor of the complex III of the mitochondrial electron transport chain, was also added as an ROS inducer. The oxidation rate of DCF, that is, the generation rate of ROS, was detected for 30 min, and for each sample, the corresponding control was also run.
HepG2 cells (human hepatocellular carcinoma) were purchased from the American Type Culture Collection (ATCC HB-8065). Cells were grown in MEM (M0894, Merck Life Sciences S.r.l., Milan, Italy) supplemented with 2.2 g/L NaHCO3 (S5761, Merck Life Sciences S.r.l., Milan, Italy), 100 U/mL penicillin, 100 μg/mL streptomycin and 0.25 μg/mL amphotericin B (A5955, Merck Life Sciences S.r.l., Milan, Italy) and 10% foetal calf serum (F7524, Merck Life Sciences S.r.l., Milan, Italy). Cells were cultured at 37 °C in a humidified atmosphere incubator containing 5% carbon dioxide in air.
The intracellular production of ROS was detected via a fluorometric method using 2′,7′-dichlorofluorescein diacetate (D6883, Merck Life Sciences S.r.l., Milan, Italy) as probe. HepG2 cells (6 × 10^3/well) were seeded into a 96-well culture plate in 200 µL of a complete growth medium and incubated for 48 h in standard conditions. The medium was then removed, and cells were washed with 5 mM of PBS–glucose. Then, cells were loaded with 10 μM of 2′,7′-dichlorofluorescein diacetate in 5 mM of PBS–glucose at 37 °C in the dark for 20 min, washed with 5 mM of PBS–glucose, treated with the test compounds at indicated concentrations in 5 mM of PBS–glucose and then analysed. Fluorescence intensity was recorded for 30 min at λemx = 485 nm and λem = 527 nm, using a Victor X3 Multilabel plate reader (Perkin Elmer). The rate of ROS generation was calculated relative to untreated cells (controls) after subtraction of autofluorescence value. Results were presented as the mean values of at least three independent experiments performed with six replicates.

| SMILES | Nrf2 nuclear translocation [1] | SI (selectivity index) (recombinant hMAO-B) | Ki (recombinant hMAO-B) [µM] | Ki (recombinant hMAO-A) [µM] | melting point [°C] | decrease in hMAO-B inhibitory potency in comparison with pioglitazone (recombinant hMAO-B) [times] | effect on antimycin A-induced ROS [2] |
| --- | --- | --- | --- | --- | --- | --- | --- |
| COc1cc(/C=C/C(=O)Nc2ccc(CC3SC(=O)NC3=O)cc2)ccc1O (centres unmarked) [Compound 5, (E)-N-(4-((2,4-Dioxothiazolidin-5-yl)methyl)phenyl)-3-(4-hydroxy-3-methoxyphenyl)acrylamide] | promoted Nrf2 translocation at a lower extent | 14.2 | 3.3 ± 1 | 47 ± 4 | 151 to 152 | – | – |
| O=C(/C=C/c1ccc(O)c(O)c1)Nc1ccc(CC2SC(=O)NC2=O)cc1 (centres unmarked) [Compound 4, (E)-3-(3,4-Dihydroxyphenyl)-N-(4-((2,4-dioxothiazolidin-5-yl)methyl)phenyl)acrylamide] | promoted Nrf2 translocation at a lower extent | 15.6 | 2.5 ± 1 | 39 ± 5 | 148 to 149 | – | – |
| COC(=O)/C=C/C(=O)Oc1ccc(CC2SC(=O)NC2=O)cc1 (centres unmarked) [Compound 1, 4-((2,4-Dioxothiazolidin-5-yl)methyl)phenyl Methyl Fumarate] | – | 8.0 | 3.14 ± 0.2 | 25 ± 4 | – | 50 | – |
| COc1cc(/C=C/C(=O)Oc2ccc(CC3SC(=O)NC3=O)cc2)ccc1O (centres unmarked) [Compound 3, 4-((2,4-Dioxothiazolidin-5-yl)methyl)phenyl (E)-3-(4-hydroxy-3-methoxyphenyl)acrylate] | – | 32.3 | 0.99 ± 0.15 | 32 ± 2 | 155 to 156 | – | almost abolish the effect of antimycin A stimulus |
| COC(=O)/C=C/C(=O)Oc1ccc(CC2SC(=O)NC2=O)cc1 (centres unmarked) (as salt: fumarate) [Compound 1, 4-((2,4-Dioxothiazolidin-5-yl)methyl)phenyl Methyl Fumarate] | – | – | – | – | 150 to 151 | – | – |

Source: PMC10650714, “Double Attack to Oxidative Stress in Neurodegenerative Disorders: MAO-B and Nrf2 as Elected Targets” (Molecules, 2023)
